Results as given in patent US20050209157A1, “Short bioactive peptides and methods for their use” (priority 2001, published 2005).
Residues, ends and D or L forms follow the SMILES beside them. No end group written: not given here.

Legend:
[1] = test system: human red blood cells (RBC); assay: in vitro; assay type: cell-based; conditions: hemolytic assay, concentration at 50% hemolysis, 1 hour at 37° C.
SW480 = assay: Anti-cancer assay, MTT, LD50; assay type: cell-based; conditions: SW480 colon adenocarcinoma line, 24 hours with peptide
Excerpt: (§1) Numbers are LD50 values (μg/mL).

MCF7 = assay: Anti-cancer assay, MTT, LD50; assay type: cell-based; conditions: MCF7 breast adenocarcinoma line, MTT, 24 hours with peptide
Excerpt: as §1

BMKC = assay: Anti-cancer assay, MTT, LD50; assay type: cell-based; conditions: BMKC cloned melanoma line, 24 hours with peptide
Excerpt: as §1

H1299 = assay: Anti-cancer assay, MTT, LD50; assay type: cell-based; conditions: 24 hours with peptide, lung large cell carcinoma
Excerpt: as §1

PC3 = assay: Anti-cancer assay, MTT, LD50; assay type: cell-based; conditions: 24 hours with peptide, prostate adenocarcinoma
Excerpt: as §1

HeLaS3 = assay: Anti-cancer assay, MTT, LD50; assay type: cell-based; conditions: 24 hours with peptide, cervical carcinoma
Excerpt: as §1

[2] = test system: yeast (Saccharomyces cerevisiae); assay: Antimicrobial assay I, yeast assay in RPMI 1640; assay type: cell-based; conditions: RPMI 1640 media
[3] = test system: Pseudomonas aeruginosa ATCC 9027; assay: Antimicrobial assay I, MIC by OD measurement; assay type: cell-based; conditions: 37° C. for 24 hours, absorbance 620 nm
[4] = test system: Staphylococcus aureus ATCC 6538; assay: Antimicrobial assay I, MIC by OD measurement; assay type: cell-based; conditions: 37° C. for 24 hours, absorbance 620 nm
WI38 = conditions: MTT, 24 hours with peptide; for WI38 LD50: normal fibroblast line; for LD50 WI38: WI38 normal lung fibroblast line
in vitro [5] = assay type: cell-based, human; conditions: human, human red blood cells, pH 7, hemolytic assay, concentration at 50% hemolysis, 1 hour at 37° C.; read-out: LD50
[6] = test system: human leukocyte (WBC) cells; assay: Stimulation and proliferation of leukocytes, Alamar Blue; assay type: cell-based; conditions: compared to untreated positive control cells; Alamar Blue
Description: In vitro viability of human leukocyte cells in the presence of different peptides at different concentrations was determined by an Alamar Blue protocol. Alamar Blue (Promega, Madison, Wis.) is an indicator dye, formulated to measure quantitatively the proliferation and cytotoxicity of the cells. The dye consists of an oxidation-reduction (redox) indicator that yields a calorimetric change and a fluorescent signal in response to cellular metabolic activity.
Assay protocol: Blood from a human was drawn and centrifuged at 1500 rpm for 15 minutes at room temperature. The buffy coat cells at the plasma-red blood cell interface were aspirated. Buffy coat cells (mainly lymphocyte cells) were then transferred into 15 ml centrifuge tubes containing 5 ml of RPMI-1640 medium+10% Fetal Bovine Serum (Gibco, Grand Island, N.Y.). Additional medium was added to the tubes to bring the volume up to 10 ml. The buffy coat suspension was then carefully layered on 5 ml of Histopaque (Sigma Chemical Co., St. Louis, Mo.) and centrifuged at 1500 rpm for 30 minutes at room temperature. The interface which is mostly PBMCs (peripheral mononuclear cells) was aspirated and transferred to a 15 ml conical centrifuge tube and, resuspended in 2 ml cold RPMI-1640 and brought up to 15 ml with cold RPMI-1640 medium. Cells were centrifuged at 1500 rpm for 10 minutes. The supernatant was then aspirated and discarded. The cell pellet was re-suspended in 1 ml of cold RPMI 1640 and brought up to 15 ml with RPMI medium. This step was repeated twice, except that in the last step, the cells were resuspended with 1 ml of cold RPMI-1640 medium and cell counts were performed with a hemocytometer according to the Sigma cell culture catalogue.
Pokewood mitogen was used as a control along with positive and negative controls. Negative control cells were killed with 70% methanol. Positive (+) control cells were incubated in RPMI medium (untreated). […] of AlamarBlue was added to the cells, and readings were taken after 24 hours, 48 hours, 72 hours, and 96 hours using a fluorimeter (excitation 544/transmission 590 nm).
Calculations were performed using the following formula. The peptide treated sample and positive control were adjusted for negative control. [formula]
Using the protocol described immediately above, about 100-150 peptides were screened for their stimulatory and/or inhibitory actions upon the growth of human leukocyte (“WBC”) cells as compared to the growth of untreated positive control cells.
The Alamar Blue stain used in the protocol permeates both cell and nuclear membranes, and is metabolized in the mitochondria to cause the change in color. The resulting fluorometric response is therefore a result of total mitochondrial activity caused by cell stimulation and/or mitosis (cell proliferation).

in vitro [7] = conditions: human, WI38 normal lung fibroblast cells, 24 hours with peptide
P. aeruginosa H374 = assay type: cell-based, Pseudomonas aeruginosa; conditions: mean of three; 16 to 20 hours at 35° C.
S. typhimurium 14028S = assay type: cell-based, Salmonella typhimurium; conditions: mean of three; 16 to 20 hours at 35° C.; in µg/mL
E. coli UB1005 = assay type: cell-based, Escherichia coli; conditions: mean of three; 16 to 20 hours at 35° C.; in µg/mL
[8] = LD50 WI38, WI38 normal lung fibroblast line, MTT

Compound	LD50 [1]	LD50 SW480 (SW480)	LD50 MCF7 (MCF7)	LD50 BMKC (BMKC)	H1299 LD50 (H1299)	PC3 LD50 (PC3)	HeLaS3 LD50 (HeLaS3)	yeast (MIC or MFC) [2]	paerug9027 (MIC) [3]	staph6538 (MIC) [4]	WI38 LD50 (WI38)	LD50 WI38 (WI38)	HC50 at 1 h (in vitro [5])	stimulatory and/or inhibitory action on growth of human leukocyte (WBC) cells [6]	CC50 at 24 h (in vitro [7]; [8])	CC50 at 24 h (in vitro [7]; WI38 LD50, MTT, normal fibroblast line)	P. aeruginosa H374 MIC (P. aeruginosa H374)	S. typhimurium 14028S MIC (S. typhimurium 14028S)	E. coli UB1005 MIC (E. coli UB1005)
CC(C)C[C@H](NC(=O)[C@H](C)NC(=O)[C@@H](N)Cc1ccccc1)C(=O)N[C@@H](C)C(N)=O [P183, FALA-NH2] (H-FALA-NH2; N-terminus assumed)	> (> indicates greater than 1000)	> (> indicates greater than 1000)	> (> indicates greater than 1000)	> (> indicates greater than 1000)	> (> indicates greater than 1000)	> (> indicates greater than 1000)	> (> indicates greater than 1000)	200 µg/mL	100 µg/mL	200 µg/mL	> (> indicates greater than 1000)	> (> indicates greater than 1000)	–	–	–	–	–	–	–
KFKKLAKKF-NH2 [P174]	> (> indicates greater than 1000)	> (> indicates greater than 1000)	> (> indicates greater than 1000)	> (> indicates greater than 1000)	> (> indicates greater than 1000)	> (> indicates greater than 1000)	> (> indicates greater than 1000)	–	–	–	> (> indicates greater than 1000)	> (> indicates greater than 1000)	–	–	–	–	–	–	–
MPKWKVFKKIEKVGRNIRNGIVKAGPAIAVLGEAKALG-OH [P5, reference compound]	> (> indicates greater than 1000)	–	–	–	–	–	–	> (> indicates greater than 200 μg/mL)	50 µg/mL	100 µg/mL	–	–	–	–	–	–	–	–	–
FALALKALKKA-NH2 [P176]	> (> indicates greater than 1000)	–	–	–	–	–	–	> (> indicates greater than 200 μg/mL)	> (> indicates greater than 200 μg/mL)	> (> indicates greater than 200 μg/mL)	–	–	–	–	–	–	–	–	–
VALALKALKKLAKKLKKLAKKAL-NH2 [P509]	–	–	–	–	–	–	–	–	–	–	–	–	40 µg/mL	stimulatory (and/or proliferative) at all concentrations through 500 μg/ml	–	–	–	–	–
KKVVFKVKFK-NH2 [P302, reference compound]	> (> indicates greater than 1000)	> (> indicates greater than 1000)	340 µg/mL	700 µg/mL	720 µg/mL	> (> indicates greater than 1000)	> (> indicates greater than 1000)	–	–	–	800 µg/mL	–	–	–	800 µg/mL	–	–	–	–
KLAKKLAKLAKLAKAL-OH [P160, reference compound]	> (> indicates greater than 1000)	370 µg/mL	320 µg/mL	220 µg/mL	470 µg/mL	450 µg/mL	550 µg/mL	–	–	–	700 µg/mL	–	–	–	700 µg/mL	–	–	–	–
FKLAFKLAKKAFL-NH2 [P122]	> (> indicates greater than 1000)	570 µg/mL	360 µg/mL	700 µg/mL	830 µg/mL	800 µg/mL	780 µg/mL	–	–	–	720 µg/mL	–	–	–	720 µg/mL	–	–	–	–
FAKLLAKLAKKAA-NH2 [P93]	> (> indicates greater than 1000)	–	–	–	320 µg/mL	690 µg/mL	> (> indicates greater than 1000)	–	–	–	–	–	–	–	–	530 µg/mL	–	–	–
KFKKLAKKW-NH2 [P175]	> (> indicates greater than 1000)	70 µg/mL	> (> indicates greater than 1000)	> (> indicates greater than 1000)	> (> indicates greater than 1000)	> (> indicates greater than 1000)	510 µg/mL	–	–	–	> (> indicates greater than 1000)	> (> indicates greater than 1000)	–	–	–	–	–	–	–
FAKKLAKKLKKLAKKLAK-OH [Shiva 10(1-18_AC]	> (> indicates greater than 1000)	–	–	–	–	–	–	–	–	–	–	–	–	–	–	–	–	–	–
YAKLLAKLAKKAL-NH2 [P155, YAKLLAKLAKKAL-NH2]	> (> indicates greater than 1000)	> (> indicates greater than 1000)	> (> indicates greater than 1000)	> (> indicates greater than 1000)	> (> indicates greater than 1000)	–	> (> indicates greater than 1000)	> (> indicates greater than 200 μg/mL)	> (> indicates greater than 200 μg/mL)	> (> indicates greater than 200 μg/mL)	> (> indicates greater than 1000)	> (> indicates greater than 1000)	–	–	–	–	–	–	–
FAKKLAKKLKKLAKLALAL-OH [P29]	–	210 µg/mL	140 µg/mL	300 µg/mL	–	–	–	–	–	–	–	–	250 µg/mL	–	520 µg/mL	–	16 µg/mL	8	8
